From article PMC5441580, “GPR40 partial agonist MK-2305 lower fasting glucose in the Goto Kakizaki rat via suppression of endogenous glucose production” (PLoS ONE, 2017)
Values joined by “and” are separate entries in the source; they are usually repeats but may differ in a detail not shown here. Identical values can stand only once.

Legend:
WKY rats = assay: endogenous glucose production in vivo, 2H/13C dual tracer, acute treatment, WKY rats; parameters: species or system rat
Description: [The procedure below names another organism; the source lists this organism under the same test.] (§1) To evaluate whether MK-2305 treatment produced an effect on EGP in vivo, a ^2H/^13C dual tracer approach was used to calculate EGP and its contributing sources. On the day of the study, GK rats were bled via tail snip, and blood glucose was measured via glucometer. Ambient glucose was measured at 8 A.M. and used to sort animals into treatment groups (n = 8 per group). 0.9% NaCl salinated D2O (Sigma-Aldrich, St. Louis, MO) was administered to all animals via IP injection at dose volume of 20 ml/kg. Animals were then placed in clean cages and food was removed. After a 5 hour fast, blood glucose was measured and animals were dosed PO with MK-2305 at 10 mg/kg (5 ml/kg) or vehicle (0.5% methylcellulose) immediately followed by 50 mg/kg [U-^13C] glucose (Sigma-Aldrich) IP at 5 ml/kg. Blood was collected via tail snip at time points from 60–150 min post treatment to measure blood glucose as well as endogenous (^12C-glucose) and exogenous (^13C-glucose) via GCMS. Following the last tail blood collection, rats were anesthetized with isoflurane and cardiac blood was collected into K2EDTA tubes (Becton, Dickinson and Co., Franklin Lakes, NJ).
(§2) The serially collected blood samples were analyzed for ^13C-glucose enrichment using GC-MS analysis. The % ^13C glucose enrichments were then combined with the total glucose readings to calculate the concentration of ^13C-glucose, and these values were modeled with a two-compartment model of whole body glucose metabolism to calculate the average EGP for the period from 0–150 minutes.
(§3) Terminal blood samples were analyzed for relative ^2H enrichment in plasma glucose using the monoacetone glucose method. Briefly, samples were extracted with 70% perchloric acid and centrifuged at 25,000 rcf for 10 min at 4°C. The supernatant was collected and the pH was adjusted to 6–8 using KOH. The samples were then lyophilized overnight. To convert plasma glucose to monoacetone glucose (MAG), acetone and concentrated sulfuric acid were added to the lyophilized samples and stirred for 4 hours at room temperature. Water was then added and the pH adjusted to 2.0 with 3M Na2CO3. Samples were stirred moderately for 18 hours at room temperature, the pH was adjusted to 7 with 3M Na2CO3, and the samples were completely dried by speed vacuum concentration. The resulting MAG samples were then extracted in hot ethyl acetate, dried overnight under a stream of N2 gas, purified using Discovery DSC-18 SPE columns (6 ml, 1 g bed weight), and freeze dried. Purified MAG samples were solubilized in 180 μl 90% acetonitrile for ^2H NMR analysis which was performed using the lock channel of a 950 MHz Bruker NMR spectrometer (David H Murdock Research Institute, Kannapolis, NC). Acquisition parameters were as follows: 90° pulse, D1 = 1 s, ^1H broadband decoupling, NS = 3600 averages, acquisition time ~ 1 hr. The ^2H NMR spectra of the MAG samples were then analyzed using in–house developed Matlab (The Mathworks Inc, Natick, MA) to model the NMR peaks with a Lorentzian line shape, and the results were used to calculate integrals for each of the seven NMR resonances in the MAG spectrum. Peaks 2, 5, and 6s were then used to calculate the relative sources of EGP (i.e. gluconeogenesis from TCA cycle substrates, gluconeogenesis from triose phosphates, and glycogenolysis) and these values were combined with the total EGP measurement to calculate absolute fluxes of glucose production.

GK rats [1] = assay: GK rat chronic efficacy, compound in feed for 20 days; assay type: in vivo; conditions: Day 7, ~6 hrs after food removal; 10mpk; chronic study; individual animals; 10 mg/kg
GK rats [2] = assay: endogenous glucose production in vivo, 2H/13C dual tracer, acute treatment, GK rats; parameters: species or system rat
Description: as §1, §2, §3

human GPR41 (FFAR3) = target: T1, human GPR41 (FFAR3) (Homo sapiens, UniProt O14843); assay: cAMP (LANCE) functional assay, CHO cells expressing human GPR41; assay type: cell-based
T1 construct: expressed in transfected cells
T1 sequence (O14843 1-346): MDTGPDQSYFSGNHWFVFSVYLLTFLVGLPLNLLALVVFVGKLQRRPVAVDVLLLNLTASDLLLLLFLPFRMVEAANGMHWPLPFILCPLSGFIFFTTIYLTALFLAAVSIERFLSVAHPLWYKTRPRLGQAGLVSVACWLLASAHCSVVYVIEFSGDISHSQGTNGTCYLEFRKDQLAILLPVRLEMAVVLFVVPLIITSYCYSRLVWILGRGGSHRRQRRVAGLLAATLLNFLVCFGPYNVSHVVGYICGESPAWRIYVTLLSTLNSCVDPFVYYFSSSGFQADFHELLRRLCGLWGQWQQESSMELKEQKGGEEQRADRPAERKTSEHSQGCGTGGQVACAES
Description: CHO cells stably expressing human GPR41 or human GPR43 were harvested with non-enzymatic cell dissociation buffer and re-suspended in LANCE stimulation buffer (prepared as described by PE) at 0.25 million cells per ml (3.3 million cells per ml for GPR43) and 6 μl was then plated into each well of a 384-well Culturplate. Compounds were serially diluted in DMSO and then diluted further into stimulation buffer containing 2 μM forskolin (Sigma) at 2-times final concentration in the assay. 6 μl of the diluted compounds were then added to the assay plate and the plate incubated for 60 mins at room temperature. After the incubation, 12 μl of detection reagent (prepared as described by PE) was added to each well and the plates incubated one additional hour at room temperature. After the final incubation, the plates were read in a Perkin Elmer Envision reader with a method designed for Time-resolved fluorescence (TRF) assays (340 nm excitation, dual emission 615 and 655 nm). For each assay, a cAMP standard curve plate was also included. All fluorescent readings (using the 655/615 nm ratio) were converted to cAMP concentration using the cAMP standard curve and the percent activity at each concentration of test compound was determined using 0% activation (basal activity) determined in those wells containing DMSO alone, while 100% activity was determined in wells containing a concentration of agonist know to maximally activate the receptor.

[3] = acute treatment, 10 mg/kg, individual animals

% Activation (human GPR41 (FFAR3); @ 25 μM): 85 @ 25 μM % and 85%
% Effect (human GPR41 (FFAR3); Dose 1.267 nM): -32%
% Effect (human GPR41 (FFAR3); Dose 3.801 nM): 0.634%
% Effect (human GPR41 (FFAR3); Dose 34.208 nM): -2.75%
% Effect (human GPR41 (FFAR3); Dose 102.624 nM): -4.7%
% Effect (human GPR41 (FFAR3); Dose 307.872 nM): -36%
% Effect (human GPR41 (FFAR3); Dose 923.617 nM): -18%
% Effect (human GPR41 (FFAR3); Dose 2770.85 nM): -0.143%
% Effect (human GPR41 (FFAR3); Dose 8312.55 nM): 50%
% Effect (human GPR41 (FFAR3); Dose 24938 nM): 85%
EC50 (human GPR41 (FFAR3); cAMP, CHO cells expressing human GPR41): 12.7 µM
Structure (SMILES): O=C1NC(=O)C(C2CCOc3cc(Oc4ccc(C(F)(F)F)cc4Cl)ccc32)S1 (stereo not shown) [MK-2305]
effects on EGP (WKY rats; acute): not statistically significant
Glucose Production, GNG Glycerol (WKY rats; [3]): 2.7 umol/kg/min (2×) and 2.4 umol/kg/min and 1.6 umol/kg/min
Glucose Production, GNG TCA (WKY rats; [3]): 8 µmol/kg/min and 8.7 µmol/kg/min and 7.8 µmol/kg/min and 6.4 µmol/kg/min
Glucose Production, GNG Total (WKY rats; [3]): 10.7 µmol/kg/min and 11.2 µmol/kg/min and 10.5 µmol/kg/min and 8.1 µmol/kg/min
Glucose Production, Glycogenolysis (WKY rats; [3]): 6.9 µmol/kg/min and 4.7 µmol/kg/min and 6.8 µmol/kg/min and 3.4 µmol/kg/min
Fasted blood glucose (GK rats [1]): 134 mg/dl (2×) and 126 mg/dl and 92 mg/dl and 108 mg/dl and 125 mg/dl and 107 mg/dl (2×) and 150 mg/dl
Glucose Production, GNG Glycerol (GK rats [2]; [3]): 3.608 µmol/kg/min and 6.69 µmol/kg/min and 9.73 µmol/kg/min and 6.819 µmol/kg/min and 7.18 µmol/kg/min and 7.314 µmol/kg/min
Glucose Production, GNG TCA (GK rats [2]; [3]): 22.6827 µmol/kg/min and 24.6101 µmol/kg/min and 42.0826 µmol/kg/min and 20.0832 µmol/kg/min and 26.1824 µmol/kg/min and 20.2011 µmol/kg/min
Glucose Production, GNG Total (GK rats [2]; [3]): 26.2902 µmol/kg/min and 31.3005 µmol/kg/min and 51.8129 µmol/kg/min and 26.902 µmol/kg/min and 33.3626 µmol/kg/min and 27.5151 µmol/kg/min
Glucose Production, Glycogenolysis (GK rats [2]; [3]): 12.8051 µmol/kg/min and 15.6084 µmol/kg/min and 16.1238 µmol/kg/min and 13.6282 µmol/kg/min and 9.977 µmol/kg/min and 16.0296 µmol/kg/min
effect on EGP derived from glycogenolysis (GK rats [2]; acute, 10 mg/kg PO): did not acutely affect
EGP from gluconeogenic substrates entering as triose phosphates (GK rats [2]; acute, 10 mg/kg PO, mean ± SEM, vehicle 8.82 ± 0.81, p < 0.05): 6.90 ± 0.80 µmol/kg/min
EGP from gluconeogenic substrates entering at the TCA cycle (GK rats [2]; acute, 10 mg/kg PO, mean ± SEM, vehicle 43.2 ± 4.17, p < 0.01): 26.0 ± 3.36 µmol/kg/min
total EGP (GK rats [2]; acute, 10 mg/kg PO, mean ± SEM, vehicle 52.0 ± 4.82, p < 0.05): 32.9 ± 3.95 µmol/kg/min
